# Patent publication US12692253B2, “Antimicrobial compounds and methods” (Curza Global, LLC, priority 2019, dated 2026)
# Key:
# [1] = system: E. coli S30 extract (bacterial protein synthesis); assay: E. coli S30 extract coupled transcription-translation luciferase assay (inhibition of bacterial protein synthesis); type: biochemical; conditions: class by IC50 or % inhibition @ 1 μM, read-out: S30 IC50 (μM/% inhib.)
# Method: E. coli S30 extract: Inhibition of bacterial protein synthesis was determined using the E. coli S30 Extract System for Circular DNA (Promega catalog #L-2010) and Luciferase Assay Reagent (Promega catalog #E1500) with slight modifications to a published protocol. Fyfe, C., Sutcliffe, J. A. and Grossman, T. H. (2012) “Development and characterization of a Pseudomonas aeruginosa in vitro coupled transcription-translation assay system for evaluation of translation inhibitors” J. Microbiol. Methods 90(3), 256-261.
# Compounds were serial diluted in 0.5 mL microcentrifuge tubes by mixing and transferring 50 μL from the highest concentration to 50 μL of water, mixing and transferring 50 μL of this 2-fold dilution to 50 μL of water. This mixing and transferring was repeated so that there are a total of 8 tubes with serial dilutions of compound at 10× the desired screening concentration that are ultimately diluted to 1× by the addition of S30 luciferase synthesis mixture. Serial dilutions of compounds were added (2 μL) to wells in a black round bottom 96-well plate. Water (2 μL) was used as a “no inhibitor” control in 4 wells/plate. No DNA control reaction mixture (20 μL; see below) was used as a control in 4 wells/plate for background luminescence. S30 luciferase synthesis mixture (18 μL; see below) was added to wells with compounds or water mixture and incubated at 37° C. for 1 hour. Reactions were stopped by transferring to 4° C. refrigerator for 5 minutes then 25 μL of luciferase activity mix was added. Luminescence was measured using a BioTek Synergy HTX plate reader. % Inhibition was determined relative to no inhibitor controls. • S30 luciferase synthesis mixture: • 445 μL S30 extract, circular • 712 μL S30 Premix without amino acids • 4.45 μL pBESTluc™ DNA (1 μg/μL) • 78 μL complete amino acid mixture • 267 μL water • No DNA control: • 20 μL S30 extract, circular • 32 μL S30 Premix without amino acids • 7 μL complete amino acid mixture • 21 μL water Rabbit Reticulocyte lysate
# [2] = biological target: Rabbit Reticulocyte Lysate (eukaryotic protein synthesis); assay: Rabbit reticulocyte lysate luciferase assay (inhibition of eukaryotic protein synthesis); type: biochemical; conditions: class by IC50 or % inhibition @ 1 μM, read-out: Rabbit reticulocyte IC50 (μM/% inhib.)
# Method: Inhibition of eukaryotic protein synthesis was determined using the Rabbit Reticulocyte Lysate System, Nuclease-Treated from Promega (catalog #L-4960) with slight modifications to the manufacturer's protocol. Compounds were serial diluted in 0.5 mL microcentrifuge tubes by mixing and transferring 50 μL from the highest concentration to 50 μL of water, mixing and transferring 50 μL of this 2-fold dilution to 50 μL of water. This mixing and transferring was repeated so that there are a total of 8 tubes with serial dilutions of compound at 10× the desired screening concentration that are ultimately diluted to 1× by the addition of rabbit reticulocyte luciferase synthesis mixture. Serial dilutions of compounds were added (2.5 μL) to wells in a black round bottom 96-well plate. Water (2.5 μL) was used as a “no inhibitor” control in 4 wells/plate. No RNA control reaction mixture (2 μL; see below) was used as a control in 4 wells/plate for background luminescence. Rabbit reticulocyte luciferase synthesis mixture (22.5 μL; see below) was added to wells with compounds or water mixture and incubated at 30° C. for 90 minutes. Luciferase assay reagent (25 μL) was added with luminescence measured using a BioTek Synergy HTX plate reader. % Inhibition was determined relative to no inhibitor controls.
# Rabbit Reticulocyte Luciferase Synthesis Mixture:
# • 1,000 μL rabbit reticulocyte lysate • 5.7 μL Luciferase Control RNA (1 μg/μL) • 26 μL complete amino acid mixture • 395 μL water • No RNA Control • 70 μL rabbit reticulocyte lysate • 2 μL complete amino acid mixture • 28 μL water Minimum Inhibitory Concentration (MIC)
# P. aeruginosa (Pa) = assay: Broth microdilution minimum inhibitory concentration (MIC), CLSI; type: cell-based; conditions: Pseudomonas aeruginosa, growth medium supplemented with sodium bicarbonate, read-out: Pa MIC + bicarb
# Method: (§1) A certified BSL-2 laboratory was used for testing. Compounds were evaluated using the broth microdilution minimum inhibitory concentration (MIC) and minimum bactericidal concentration (MBC) assays defined by Clinical and Laboratory Standards Institute (CLSI) in the M26-A guideline against S. aureus (Sa), E. coli (Ec), K. pneumoniae (Kp), A. baumannn (Ab), E. faecalis (Ef) and P. aeruginosa (Pa).
# (§2) MICs were determined using the Clinical Laboratory and Standards Institute (CLSI) Broth Microdilution Method with slight modification. Clinical and Laboratory Standards Institute (2012). “Methods for dilution antimicrobial susceptibility tests for bacteria that grow aerobically; approved standard, 9th ed. M07-A9 Clinical and Laboratory Standards Institute, Wayne, PA” Serial two-fold dilutions of compounds are prepared in sterile clear round-bottom 96-well plates.
# (§3) To prepare microdilution trays, two-fold dilutions of antimicrobial agent are prepared in growth medium: Cation-Adjusted Mueller-Hinton Broth (CAMHB), or CAMHB supplemented with sodium bicarbonate (6.25 or 25 mM final concentration prepared from a 1.0M stock solution) or CAMHB supplemented with heat inactivated human serum (Fisher Cat. #BP2657100) 0-50% by adding 200 µL of the highest concentration to be tested (64 μg/mL, for example) in row A, mixing and transferring 100 μL from row A to 100 μL growth medium in row B, then repeating the mixing and transferring through row H of the 96-well plate, discarding the excess […] remaining. This slight modification to the CLSI protocol enables evaluation of MICs for 3 compounds per plate in triplicate, albeit with only 8 compound dilutions (CLSI protocol enables 2 compounds in triplicate with 10 dilutions). Bacterial suspensions are added to a final concentration of 5×10^4 CFU/well by adding 5 μL of a 1:10 dilution of a 0.5 McFarland suspension (1×10^8 CFU/mL) for each bacterium evaluated. Bacterial suspensions were prepared using the growth method described by CLSI. Well-isolated colonies (3-5 from an agar plate) were selected using a sterile loop and used to inoculate a tube containing 4 mL of CAMHB. The cultures are incubated at 35±2° C. until it achieves or exceeds the turbidity of the 0.5 McFarland standard, determined by measuring A600 (usually two to six hours). When growth exceeds a 0.5 McFarland standard, the turbidity is adjusted with broth to be equivalent to a 0.5 McFarland standard.
# E. coli (Ec) = assay: as above; type: cell-based; conditions: Escherichia coli, growth medium supplemented with sodium bicarbonate, read-out: E. coli + bicarb MIC
# Method: as §1, §2, §3
# E. faecalis (Ef) = assay: as above; type: cell-based; conditions: Enterococcus faecalis, growth medium supplemented with sodium bicarbonate, read-out: Ef + bicarb MIC
# Method: as §1, §2, §3
# A. baumannn (Ab) = assay: as above; type: cell-based; conditions: Acinetobacter baumannii, read-out: Ab + bicarb MIC
# Method: as §1, §2, §3
# S. aureus (Sa) = assay: as above; type: cell-based; conditions: Staphylococcus aureus, growth medium supplemented with sodium bicarbonate, read-out: Sa + bicarb MIC
# Method: as §1, §2, §3
compound,measurement,setting,value
CC(C)(N)C(=O)N1CCN(C(=O)Nc2ccn(-c3ccc(CN4C[C@@H]5[C@@H](N)[C@@H]5C4)cc3)c(=O)n2)CC1 [Compound 3],IC50,[1],< 0.5 µM
same,IC50,[2],≥ 1 µM
same,MIC,P. aeruginosa (Pa),8 to 32 µg/mL
same,MIC,E. coli (Ec),< 8 µg/mL
same,MIC,E. faecalis (Ef),< 8 µg/mL
same,MIC,A. baumannn (Ab),< 8 µg/mL
same,MIC,S. aureus (Sa),< 8 µg/mL
C[C@](N)(CO)C(=O)N1CCN(C(=O)Nc2ccn(-c3ccc(CN4C[C@@H]5[C@@H](N)[C@@H]5C4)cc3)c(=O)n2)CC1 [Compound 4],IC50,[1],< 0.5 µM
same,IC50,[2],≥ 1 µM
same,MIC,P. aeruginosa (Pa),> 32 µg/mL
same,MIC,E. coli (Ec),< 8 µg/mL
same,MIC,E. faecalis (Ef),< 8 µg/mL
same,MIC,A. baumannn (Ab),> 32 µg/mL
CC(C)(N)C(=O)N1CCN(C(=O)Nc2ccn(-c3ccc(CN4CCC5(N)CC5C4)cc3)c(=O)n2)CC1 (stereo not drawn) [Compound 13],IC50,[1],0.5 to 1 µM
same,IC50,[2],≥ 1 µM
same,MIC,P. aeruginosa (Pa),> 32 µg/mL
same,MIC,E. coli (Ec),< 8 µg/mL
same,MIC,E. faecalis (Ef),< 8 µg/mL
same,MIC,A. baumannn (Ab),> 32 µg/mL
same,MIC,S. aureus (Sa),< 8 µg/mL
CC(C)(N)C(=O)N1CCN(C(=O)Nc2ccn(-c3ccc(CN4C[C@@H]5[C@H](N)[C@@H]5C4)cc3)c(=O)n2)CC1 [Compound 14],IC50,[1],< 0.5 µM
same,IC50,[2],≥ 1 µM
same,MIC,P. aeruginosa (Pa),> 32 µg/mL
same,MIC,E. coli (Ec),< 8 µg/mL
same,MIC,E. faecalis (Ef),< 8 µg/mL
same,MIC,A. baumannn (Ab),> 32 µg/mL
same,MIC,S. aureus (Sa),< 8 µg/mL
C[C@H]1CN(C(=O)C(C)(C)N)CCN1C(=O)Nc1ccn(-c2ccc(CN3C[C@@H]4[C@@H](N)[C@@H]4C3)cc2)c(=O)n1 [Compound 17],IC50,[1],< 0.5 µM
same,IC50,[2],≥ 1 µM
same,MIC,P. aeruginosa (Pa),> 32 µg/mL
same,MIC,E. coli (Ec),< 8 µg/mL
CC(C)(N)C(=O)N1CCN(C(=O)Nc2ccn(-c3ccc(CN4C[C@@H]5[C@@H](N)[C@@H]5C4)cc3)c(=O)n2)C(c2ccccc2)C1 (stereo partly drawn) [Compound 27],IC50,[1],< 0.5 µM
same,IC50,[2],≥ 1 µM
same,MIC,P. aeruginosa (Pa),> 32 µg/mL
same,MIC,E. coli (Ec),< 8 µg/mL
same,MIC,S. aureus (Sa),8 to 32 µg/mL
C[C@@H]1CN(C(=O)Nc2ccn(-c3ccc(CN4C[C@@H]5[C@@H](N)[C@@H]5C4)cc3)c(=O)n2)CCN1C(=O)C(C)(C)N [Compound 31],IC50,[1],< 0.5 µM
same,IC50,[2],≥ 1 µM
same,MIC,P. aeruginosa (Pa),> 32 µg/mL
same,MIC,E. coli (Ec),< 8 µg/mL
C[C@@H]1CN(C(=O)[C@@](C)(N)CO)CCN1C(=O)Nc1ccn(-c2ccc(CN3C[C@@H]4[C@@H](N)[C@@H]4C3)cc2)c(=O)n1 [Compound 35],IC50,[1],< 0.5 µM
same,IC50,[2],≥ 1 µM
same,MIC,E. faecalis (Ef),8 to 32 µg/mL
same,MIC,A. baumannn (Ab),> 32 µg/mL
C[C@](N)(CO)C(=O)N1CCN(C(=O)Nc2ccn(-c3ccc(CN4CC5(CC(N)C5)C4)cc3)c(=O)n2)CC1 [Compound 36],IC50,[1],< 0.5 µM
same,IC50,[2],≥ 1 µM
same,MIC,P. aeruginosa (Pa),> 32 µg/mL
same,MIC,E. coli (Ec),< 8 µg/mL
same,MIC,E. faecalis (Ef),> 32 µg/mL
same,MIC,A. baumannn (Ab),> 32 µg/mL
C[C@](N)(CO)C(=O)N1CCN(C(=O)Nc2ccn(-c3ccc(CN4CCC5(CC4)CC(N)C5)cc3)c(=O)n2)CC1 [Compound 37],IC50,[1],< 0.5 µM
same,IC50,[2],≥ 1 µM
same,MIC,P. aeruginosa (Pa),8 to 32 µg/mL
same,MIC,E. coli (Ec),< 8 µg/mL
CC(C)(N)C(=O)N1CCN(C(=O)Nc2ccn(-c3ccc(CN4CCC5(CCC5N)CC4)cc3)c(=O)n2)CC1 (stereo not drawn) [Compound 38],IC50,[1],< 0.5 µM
same,IC50,[2],≥ 1 µM
same,MIC,E. faecalis (Ef),8 to 32 µg/mL
same,MIC,A. baumannn (Ab),> 32 µg/mL
CC(C)(N)C(=O)N1CCN(C(=O)Nc2ccn(-c3ccc(CN4CC5(CNC5)C4)cc3)c(=O)n2)CC1 [Compound 46],IC50,[1],< 0.5 µM
same,IC50,[2],≥ 1 µM
same,MIC,P. aeruginosa (Pa),> 32 µg/mL
same,MIC,E. coli (Ec),< 8 µg/mL
same,MIC,E. faecalis (Ef),> 32 µg/mL
same,MIC,S. aureus (Sa),8 to 32 µg/mL
CC(C)(N)C(=O)N1CCN(C(=O)Nc2ccn(-c3ccc(CN4CC5(CCNCC5)C4)cc3)c(=O)n2)CC1 [Compound 81],IC50,[1],< 0.5 µM
same,IC50,[2],≥ 1 µM
same,MIC,P. aeruginosa (Pa),> 32 µg/mL
same,MIC,E. coli (Ec),< 8 µg/mL
same,MIC,A. baumannn (Ab),> 32 µg/mL
same,MIC,S. aureus (Sa),8 to 32 µg/mL
C[C@](N)(CO)C(=O)N1CCN(C(=O)Nc2ccn(-c3cccc(CCN4C[C@@H]5[C@@H](N)[C@@H]5C4)c3)c(=O)n2)CC1 [Compound 89],IC50,[1],≥ 1 µM
same,MIC,P. aeruginosa (Pa),> 32 µg/mL
same,MIC,E. coli (Ec),8 to 32 µg/mL
same,MIC,S. aureus (Sa),> 32 µg/mL
CC(C)(N)C(=O)N1CCN(C(=O)Nc2ccn(-c3ccc(CCN4CCC5(CC4)CC(N)C5)cc3)c(=O)n2)CC1 [Compound 91],IC50,[1],< 0.5 µM
same,IC50,[2],≥ 1 µM
same,MIC,P. aeruginosa (Pa),< 8 µg/mL
same,MIC,E. coli (Ec),< 8 µg/mL
CC(C)(N)C(=O)N1CCN(C(=O)Nc2ccn(-c3ccc(CCN4CCC5CC5(N)C4)cc3)c(=O)n2)CC1 (stereo not drawn) [Compound 93],IC50,[1],< 0.5 µM
same,IC50,[2],≥ 1 µM
same,MIC,P. aeruginosa (Pa),< 8 µg/mL
same,MIC,E. coli (Ec),< 8 µg/mL
same,MIC,E. faecalis (Ef),< 8 µg/mL
same,MIC,A. baumannn (Ab),> 32 µg/mL
